According to US20020165133A1 (priority 2001, published 2002):
Entries after “also recorded” stand apart in the source; their conditions may differ.

Tested on: C57BL/6 mice
Assay: Test of hair regrowth effects on the shaved backs of C57BL/6 mice
Type: in vivo
Details: C57BL/6 mice (female), applied over hair removed area once a day for 30 days, 100 μl (0.05% w/v)
Source text: C57BL/6 mice (female), 42˜49 days old, were used in this test.
The mice were removed of hair on their backs using an electric shaver, and weighed. The mice were divided into several groups with weights equally distributed. […] The degree of hair growth were judged by naked eye and the back sides of the mice were photographed.

[Leu^4]cyclosporin A [M21]
hair growth effect (degree of hair growth judged by naked eye): no significant effect; also recorded: no hair growth effect
